Measurements published in patent US20220378954A1, “METHODS FOR RADIOLABELLING GRPR ANTAGONISTS AND THEIR KITS” (NOVARTIS AG, priority 2019, published 2022).
Several values for one entry are separate records, joined by “and”; a condition that tells them apart may be missing. Equal entries are not always repeated.

Experiment: Peptide adhesion tests (non-specific binding of NeoB to glass and plastic surfaces)
Assay type: physicochemical
Details: final formulation: NeoB 50 μg, Mannitol 20 mg, Kolliphor HS15 500 μg, Gentisic acid 200 μg; three independent radiolabelling tests; adhesion to the glass

CC(C)CC(CC(C)C)NC(=O)[C@H](Cc1cnc[nH]1)NC(=O)CNC(=O)[C@@H](NC(=O)[C@H](C)NC(=O)[C@H](Cc1c[nH]c2ccccc12)NC(=O)[C@H](CCC(N)=O)NC(=O)[C@@H](Cc1ccccc1)NC(=O)COCC(=O)Nc1ccc(CNC(=O)CN2CCN(CC(=O)O)CCN(CC(=O)O)CCN(CC(=O)O)CC2)cc1)C(C)C [NeoB]
Peptide Adhesion (%): 4.8% and 5.0% and 5.8%
